For this assay, the target named is T1, human Fatty Acid Synthase (Homo sapiens, UniProt P49327).
T1 construct: made in house
The assay can be described thus: Human FAS enzyme assay (decrease in NADPH fluorescence). It counts as biochemical. Conditions: for IC50, inhibition of human Fatty Acid Synthase: FAS enzyme assay, IC50 from fitted sigmoid curves; for inhibition at 100 µM: % inhibition at a concentration of 100 μmolar. How it is done: Human and Rat FAS Enzyme Assay.
Fatty acid synthase is an enzyme complex that harbours seven enzymatic activities catalysing the reductive synthesis of long chain fatty acids from acetyl CoA and malonyl CoA to palmitate. When acetyl CoA and malonyl CoA are forming palmitate NADPH is consumed forming NADP. Since NADPH is fluorescent but not NADP the reaction can be measured by analysing the decrease in fluorescence.
Compounds were added to a black 384 well plate (Matrix) in a volume of 5 μl consisting of 20% DMSO and 80% Tris buffer pH 7.5, at a top concentration of 1 mM. NADPH, 30 μl of 166.6 μM, formulated in assay buffer (0.1M Tris ph7.5, 0.1 mM EDTA, 1 mM glutathione, 0.05% BSA), was then added to all of the wells of the plate. Fatty acid synthase Human or rat enzyme (0.4 μg, produced in house), dissolved in 20 mM Tris/HCl pH 7.5, 5 mM BOG, 1 mM TCEP, 10% glycerol, 1 mM EDTA, 150 mM NaCl, was then added to the plate in a volume of 10 μl. Enzyme was added to all but the last two columns of the plate, to which, 10 μl of assay buffer was added (0.1M Tris ph7.5, 0.1 mM EDTA, 1 mM glutathione, 0.05% BSA) to provide a no enzyme assay control. Following a 15-minute incubation period, at room temperature, the plates were read on an Envision plate reader using 340 nm excitation and 460 nm emission filters. This served as a time zero background read. Substrates (an equal mix of both malonyl and acetyl CoA) were then added to the plates in a total volume of 5 μl. The concentrations of malonyl and acetyl CoA in the mixture were 500 μM and 150 μM respectively. Both were prepared as 10 mM stock solutions in distilled water and were subsequently diluted to working concentrations in assay buffer. Plates were then incubated for a further 60 minutes, at room temperature, before being read again on the Envision reader using the same parameters as previously used. The data was analysed by subtracting the background time zero data from that generated following the final 60 minute incubate and the percent inhibition compared to the maximum and minimum assay controls was determined. Sigmoid curves were fitted using Origin 7.5 Client software and IC50 values were determined.

T1 sequence (P49327 whole entry): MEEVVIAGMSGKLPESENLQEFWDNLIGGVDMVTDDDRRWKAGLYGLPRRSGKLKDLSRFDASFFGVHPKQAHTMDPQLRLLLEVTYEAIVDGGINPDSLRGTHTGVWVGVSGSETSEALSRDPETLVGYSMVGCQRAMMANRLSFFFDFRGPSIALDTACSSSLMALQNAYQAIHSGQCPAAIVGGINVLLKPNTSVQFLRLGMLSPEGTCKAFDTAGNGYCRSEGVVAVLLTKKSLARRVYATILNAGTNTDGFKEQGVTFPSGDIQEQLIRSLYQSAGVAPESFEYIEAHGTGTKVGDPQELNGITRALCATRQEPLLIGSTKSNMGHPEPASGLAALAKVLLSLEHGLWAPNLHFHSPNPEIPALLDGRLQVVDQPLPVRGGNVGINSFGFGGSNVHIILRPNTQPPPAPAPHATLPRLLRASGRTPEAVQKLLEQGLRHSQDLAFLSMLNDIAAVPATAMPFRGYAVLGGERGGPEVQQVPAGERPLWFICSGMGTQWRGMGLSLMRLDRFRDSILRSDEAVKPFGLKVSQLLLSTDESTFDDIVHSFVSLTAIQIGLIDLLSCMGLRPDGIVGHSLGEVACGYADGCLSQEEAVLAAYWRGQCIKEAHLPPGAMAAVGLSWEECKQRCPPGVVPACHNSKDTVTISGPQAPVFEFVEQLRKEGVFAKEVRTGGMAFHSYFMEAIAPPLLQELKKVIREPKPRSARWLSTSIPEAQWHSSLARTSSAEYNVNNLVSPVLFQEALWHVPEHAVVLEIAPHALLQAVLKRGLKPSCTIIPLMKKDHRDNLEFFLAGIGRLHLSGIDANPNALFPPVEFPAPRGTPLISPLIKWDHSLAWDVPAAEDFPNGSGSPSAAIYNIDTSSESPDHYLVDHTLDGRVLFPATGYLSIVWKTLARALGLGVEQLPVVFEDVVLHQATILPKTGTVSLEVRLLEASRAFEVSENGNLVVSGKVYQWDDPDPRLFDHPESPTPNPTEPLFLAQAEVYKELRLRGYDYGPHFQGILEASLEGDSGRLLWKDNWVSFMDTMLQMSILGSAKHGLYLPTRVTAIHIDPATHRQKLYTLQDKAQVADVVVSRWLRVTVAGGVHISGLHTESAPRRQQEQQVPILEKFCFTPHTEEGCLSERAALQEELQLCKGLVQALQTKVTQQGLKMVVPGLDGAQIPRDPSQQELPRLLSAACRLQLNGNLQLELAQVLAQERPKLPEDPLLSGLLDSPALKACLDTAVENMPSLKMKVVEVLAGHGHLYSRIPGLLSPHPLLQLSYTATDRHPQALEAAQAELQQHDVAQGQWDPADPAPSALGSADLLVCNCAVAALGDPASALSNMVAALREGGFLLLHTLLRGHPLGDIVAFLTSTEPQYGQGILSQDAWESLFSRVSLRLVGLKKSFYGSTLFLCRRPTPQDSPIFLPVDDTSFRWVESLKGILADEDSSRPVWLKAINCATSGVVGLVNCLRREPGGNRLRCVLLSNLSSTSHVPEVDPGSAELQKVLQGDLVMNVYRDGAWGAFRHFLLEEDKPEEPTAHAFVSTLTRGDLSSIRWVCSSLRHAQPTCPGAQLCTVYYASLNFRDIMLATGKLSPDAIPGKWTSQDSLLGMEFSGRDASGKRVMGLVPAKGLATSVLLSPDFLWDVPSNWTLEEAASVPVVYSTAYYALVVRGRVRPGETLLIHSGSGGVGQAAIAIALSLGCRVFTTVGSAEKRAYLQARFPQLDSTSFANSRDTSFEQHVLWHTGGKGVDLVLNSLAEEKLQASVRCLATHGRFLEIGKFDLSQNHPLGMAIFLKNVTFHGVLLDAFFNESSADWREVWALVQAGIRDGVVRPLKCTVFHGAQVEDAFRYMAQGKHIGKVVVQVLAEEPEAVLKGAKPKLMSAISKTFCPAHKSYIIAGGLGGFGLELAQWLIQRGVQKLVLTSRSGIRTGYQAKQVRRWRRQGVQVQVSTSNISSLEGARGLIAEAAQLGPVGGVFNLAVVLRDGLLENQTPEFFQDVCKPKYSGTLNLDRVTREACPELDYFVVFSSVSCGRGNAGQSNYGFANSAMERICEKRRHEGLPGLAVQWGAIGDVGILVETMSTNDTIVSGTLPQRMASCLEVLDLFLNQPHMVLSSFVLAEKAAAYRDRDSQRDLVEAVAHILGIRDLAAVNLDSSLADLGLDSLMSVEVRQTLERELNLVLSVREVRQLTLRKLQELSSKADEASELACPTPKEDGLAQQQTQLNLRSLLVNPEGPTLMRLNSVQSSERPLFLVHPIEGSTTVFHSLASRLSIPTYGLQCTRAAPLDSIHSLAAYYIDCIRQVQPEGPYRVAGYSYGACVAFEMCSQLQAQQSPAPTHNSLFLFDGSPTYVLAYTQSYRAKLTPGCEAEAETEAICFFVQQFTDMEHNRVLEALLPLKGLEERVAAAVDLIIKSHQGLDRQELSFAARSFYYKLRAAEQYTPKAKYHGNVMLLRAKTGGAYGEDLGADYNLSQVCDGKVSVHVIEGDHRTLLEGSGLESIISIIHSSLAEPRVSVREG

In the case of `COc1ccccc1C1CCN(C(=O)c2ccc(C)c(NC(=O)NC(C)C)c2)CC1` [1-[5-[4-(2-methoxyphenyl)piperidine-1-carbonyl]-2-methylphenyl]-3-propan-2-ylurea], the “IC50, inhibition of human Fatty Acid Synthase” value (from here on “IC50, inhibition”) was “do not have IC50s in the range of about 0.001 μM to about 30 μM”.
The same measure, in the same setting: as for `Cc1ccc(C(=O)N2CCC(c3cccc(Cl)c3)CC2)cc1NC(=O)NC(C)C` [1-[5-[4-(3-chlorophenyl)piperidine-1-carbonyl]-2-methylphenyl]-3-propan-2-ylurea], the entry is “do not have IC50s in the range of about 0.001 μM to about 30 μM”.
Still for that read-out and setting: the entry for `Cc1ccc(C(=O)N2CCC(c3cccc(F)c3)CC2)cc1NC(=O)NC(C)C` [1-[5-[4-(3-fluorophenyl)piperidine-1-carbonyl]-2-methylphenyl]-3-propan-2-ylurea] is “do not have IC50s in the range of about 0.001 μM to about 30 μM”.
Consider `COc1cccc(C2CCN(C(=O)c3ccc(C)c(NC(=O)NC(C)C)c3)CC2)c1` [1-[5-[4-(3-methoxyphenyl)piperidine-1-carbonyl]-2-methylphenyl]-3-propan-2-ylurea], for which the “IC50, inhibition” value is on record as “do not have IC50s in the range of about 0.001 μM to about 30 μM”.
The same measure, in the same setting: the entry for `Cc1ccc(C(=O)N2CCC(O)(c3cccc(C(F)(F)F)c3)CC2)cc1NC(=O)NC(C)C` [1-[5-[4-hydroxy-4-[3-(trifluoromethyl)phenyl]piperidine-1-carbonyl]-2-methylphenyl]-3-propan-2-ylurea] is “do not have IC50s in the range of about 0.001 μM to about 30 μM”.
On the same count and under the same terms, as for `COc1ccc(NC(=O)NC(C)C)cc1C(=O)N1CCC(c2ccc(C#N)cc2)CC1` [3-[3-[4-(4-cyanophenyl)piperidine-1-carbonyl]-4-methoxyphenyl]-1-propan-2-ylurea], the entry is “do not have IC50s in the range of about 0.001 μM to about 30 μM”; as for `CC(C)NC(=O)Nc1ccc([S+](C)[O-])c(C(=O)N2CCC(c3ccc(C#N)cc3)CC2)c1` (stereo not shown) [3-[3-[4-(4-cyanophenyl)piperidine-1-carbonyl]-4-methylsulfinylphenyl]-1-propan-2-ylurea], “do not have IC50s in the range of about 0.001 μM to about 30 μM”; as for `CC(C)NC(=O)Nc1ccc(S(C)(=O)=O)c(C(=O)N2CCC(c3ccc(C#N)cc3)CC2)c1` [3-[3-[4-(4-cyanophenyl)piperidine-1-carbonyl]-4-methylsulfonylphenyl]-1-propan-2-ylurea], “do not have IC50s in the range of about 0.001 μM to about 30 μM”.
Still for that read-out and setting: the entry for `Cc1ccc(C(=O)N2CCC(c3ccc(C#N)cc3)CC2)cc1NC(=O)N(C)C` [3-[5-[4-(4-cyanophenyl)piperidine-1-carbonyl]-2-methylphenyl]-1,1-dimethylurea] is “do not have IC50s in the range of about 0.001 μM to about 30 μM”.
On to `Cc1ccc(C(=O)N2CCC(c3ccc(C#N)cc3)CC2)cc1NC(=O)N(C)C(C)(C)C#N` [3-[5-[4-(4-cyanophenyl)piperidine-1-carbonyl]-2-methylphenyl]-1-(2-cyanopropan-2-yl)-1-methylurea], for which the “IC50, inhibition” value is “do not have IC50s in the range of about 0.001 μM to about 30 μM”.
Same read-out and setting: the entry for `COCCN(C)C(=O)Nc1cc(C(=O)N2CCC(c3ccc(C#N)cc3)CC2)ccc1C` [3-[5-[4-(4-cyanophenyl)piperidine-1-carbonyl]-2-methylphenyl]-1-(2-methoxyethyl)-1-methylurea] is “do not have IC50s in the range of about 0.001 μM to about 30 μM”; for `Cc1ccc(C(=O)N2CCC(c3ccc(C#N)cc3)CC2)cc1NC(=O)N(C1CC1)C1CCS(=O)(=O)C1` (stereo not shown) [3-[5-[4-(4-cyanophenyl)piperidine-1-carbonyl]-2-methylphenyl]-1-cyclopropyl-1-(1,1-dioxothiolan-3-yl)urea] it is “do not have IC50s in the range of about 0.001 μM to about 30 μM”; for `Cc1ccc(C(=O)N2CCC(c3ccc(C#N)cc3)CC2)cc1NC(=O)N(C)CC1CCCO1` (stereo not shown) [3-[5-[4-(4-cyanophenyl)piperidine-1-carbonyl]-2-methylphenyl]-1-methyl-1-(oxolan-2-ylmethyl)urea] it is “do not have IC50s in the range of about 0.001 μM to about 30 μM”.
Still for that read-out and setting: the entry for `COc1ccc(NC(=O)NCc2ccccc2)cc1C(=O)N1CCC(c2ccc(C#N)cc2)CC1` [3-benzyl-1-[3-[4-(4-cyanophenyl)piperidine-1-carbonyl]-4-methoxyphenyl]urea] is “do not have IC50s in the range of about 0.001 μM to about 30 μM”; for `CS(=O)(=O)c1ccc(C(=O)N2CCC(c3ccc(C#N)cc3)CC2)cc1NC(=O)NCc1ccccc1` [3-benzyl-1-[5-[4-(4-cyanophenyl)piperidine-1-carbonyl]-2-methylsulfonylphenyl]urea] it is “do not have IC50s in the range of about 0.001 μM to about 30 μM”; for `CCOC(=O)[C@H](CO)NC(=O)Nc1cc(C(=O)N2CCC(c3ccc(C#N)cc3)CC2)ccc1C` [Ethyl (2S)-2-[[5-[4-(4-cyanophenyl)piperidine-1-carbonyl]-2-methylphenyl]carbamoylamino]-3-hydroxypropanoate] it is “do not have IC50s in the range of about 0.001 μM to about 30 μM”.
One may read the inhibition as the drop in the measured response relative to a control, in per cent. The low end stands for a response near the control, the high end for a response far below the control. Take `CCCCNC(=O)Nc1cc(C(=O)N2CCC(c3ccc(C#N)cc3)CC2)ccc1C` [Example 1, 1-butyl-3-[5-[4-(4-cyanophenyl)piperidine-1-carbonyl]-2-methyl-phenyl]urea]: the inhibition at 100 µM was 95.6%.
`Cc1ccc(C(=O)N2CCC(c3ccc(C#N)cc3)CC2)cc1NC(=O)N1CCOCC1` [Example 2, N-[5-[4-(4-cyanophenyl)piperidine-1-carbonyl]-2-methyl-phenyl]morpholine-4-carboxamide] yielded an inhibition at 100 µM of 79.7%.
Same read-out and setting: the figure for `Cc1ccc(C(=O)N2CCC(c3ccc(C#N)cc3)CC2)cc1NC(=O)NC(C)C` [Example 3, 3-[5-[4-(4-cyanophenyl)piperidine-1-carbonyl]-2-methyl-phenyl]-1-propan-2-yl-urea] is 95.6%.
Take `CC(C)NC(=O)Nc1cc(C(=O)N2CCC(c3ccc(C#N)cc3)CC2)ccc1OC(F)(F)F` [Example 4, 3-[5-[4-(4-cyanophenyl)piperidine-1-carbonyl]-2-(trifluoromethoxy)phenyl]-1-propan-2-yl-urea]: the inhibition at 100 µM amounted to 86.1%.
The molecule `N#Cc1ccc(C2CCN(C(=O)c3ccc(OC(F)(F)F)c(NC(=O)NCc4ccccc4)c3)CC2)cc1` [Example 5, 3-benzyl-1-[5-[4-(4-cyanophenyl)piperidine-1-carbonyl]-2-(trifluoromethoxy)phenyl]urea] returned an inhibition at 100 µM of 78.8%.
On the same count and under the same terms, the figure for `COc1ccc(C(=O)N2CCC(c3ccc(C#N)cc3)CC2)cc1NC(=O)NC(C)C` [Example 6, 1-[5-[4-(4-cyanophenyl)piperidine-1-carbonyl]-2-methoxy-phenyl]-3-propan-2-yl-urea] is 79.6%; for `Cc1ccc(NC(=O)NCc2ccccc2)cc1C(=O)N1CCC(c2ccc(C#N)cc2)CC1` [Example 7, 3-benzyl-1-[3-[4-(4-cyanophenyl)piperidine-1-carbonyl]-4-methyl-phenyl]urea] it is 79.1%; for `N#Cc1ccc(C2CCN(C(=O)c3ccc(F)c(NC(=O)NCc4ccccc4)c3)CC2)cc1` [Example 8, 3-benzyl-1-[5-[4-(4-cyanophenyl)piperidine-1-carbonyl]-2-fluoro-phenyl]urea] it is 82.6%.
`COc1ccc(C(=O)N2CCC(c3ccc(C#N)cc3)CC2)cc1NC(=O)NCc1ccccc1` [Example 9, 3-benzyl-1-[5-[4-(4-cyanophenyl)piperidine-1-carbonyl]-2-methoxy-phenyl]urea] yielded an inhibition at 100 µM of 70.4%.
On to `Cc1ccc(C(=O)N2CCC(c3ccc(C#N)cc3)CC2)cc1NC(=O)N1CCCC1` [Example 10, N-[5-[4-(4-cyanophenyl)piperidine-1-carbonyl]-2-methyl-phenyl]pyrrolidine-1-carboxamide], for which testing at 100 µM gave an inhibition of 83.5%.
On the same count and under the same terms, as for `CC(C)NC(=O)Nc1cc(C(=O)N2CCC(c3ccc(C#N)cc3)CC2)ccc1F` [Example 11, 3-[5-[4-(4-cyanophenyl)piperidine-1-carbonyl]-2-fluoro-phenyl]-1-propan-2-yl-urea], the figure is 68.4%; as for `Cc1cc(C)c(C(=O)N2CCC(c3ccc(C#N)cc3)CC2)cc1NC(=O)NCc1ccccc1` [Example 12, 3-benzyl-1-[5-[4-(4-cyanophenyl)piperidine-1-carbonyl]-2,4-dimethyl-phenyl]urea], 84.6%.

The values above are taken from US20090118332A1, “Therapeutic Agents - 551” (AstraZeneca AB, priority 2006, published 2009).
